Reference: US9340590B2 (priority 2011, dated 2016)
Like-named read-outs stand apart in the source and are kept apart here. Positions of bridges follow the written chain, without caps; N, C: chain ends. Non-standard residues stand in square brackets, D forms with d. Residues, ends and D or L forms follow the SMILES beside them. 2Pal = N[C@@H](Cc1ccccn1)C(=O)O; Abu = CC[C@H](N)C(=O)O

Assays:
Experiment in all cases: cell-based
hNav1.5 = hNav1.5 (Homo sapiens, UniProt Q14524)
hNav1.3 = hNav1.3 (Homo sapiens, UniProt Q9NY46); conditions: IonWorks Quattro, read-out: IWQ Use Nav1.3
hNav1.7 = hNav1.7 (Homo sapiens, UniProt Q15858); type: cell-based
[1] = IonWorks Quattro, use-dependent protocol, hNav1.5, read-out: IWQ Use Nav1.5
[2] = use-dependent protocol, hNav1.3
[3] = IonWorks Quattro, use-dependent protocol, hNav1.7, read-out: IWQ Use Nav1.7

hNav1.5, sequence (Q14524 whole entry, looked up): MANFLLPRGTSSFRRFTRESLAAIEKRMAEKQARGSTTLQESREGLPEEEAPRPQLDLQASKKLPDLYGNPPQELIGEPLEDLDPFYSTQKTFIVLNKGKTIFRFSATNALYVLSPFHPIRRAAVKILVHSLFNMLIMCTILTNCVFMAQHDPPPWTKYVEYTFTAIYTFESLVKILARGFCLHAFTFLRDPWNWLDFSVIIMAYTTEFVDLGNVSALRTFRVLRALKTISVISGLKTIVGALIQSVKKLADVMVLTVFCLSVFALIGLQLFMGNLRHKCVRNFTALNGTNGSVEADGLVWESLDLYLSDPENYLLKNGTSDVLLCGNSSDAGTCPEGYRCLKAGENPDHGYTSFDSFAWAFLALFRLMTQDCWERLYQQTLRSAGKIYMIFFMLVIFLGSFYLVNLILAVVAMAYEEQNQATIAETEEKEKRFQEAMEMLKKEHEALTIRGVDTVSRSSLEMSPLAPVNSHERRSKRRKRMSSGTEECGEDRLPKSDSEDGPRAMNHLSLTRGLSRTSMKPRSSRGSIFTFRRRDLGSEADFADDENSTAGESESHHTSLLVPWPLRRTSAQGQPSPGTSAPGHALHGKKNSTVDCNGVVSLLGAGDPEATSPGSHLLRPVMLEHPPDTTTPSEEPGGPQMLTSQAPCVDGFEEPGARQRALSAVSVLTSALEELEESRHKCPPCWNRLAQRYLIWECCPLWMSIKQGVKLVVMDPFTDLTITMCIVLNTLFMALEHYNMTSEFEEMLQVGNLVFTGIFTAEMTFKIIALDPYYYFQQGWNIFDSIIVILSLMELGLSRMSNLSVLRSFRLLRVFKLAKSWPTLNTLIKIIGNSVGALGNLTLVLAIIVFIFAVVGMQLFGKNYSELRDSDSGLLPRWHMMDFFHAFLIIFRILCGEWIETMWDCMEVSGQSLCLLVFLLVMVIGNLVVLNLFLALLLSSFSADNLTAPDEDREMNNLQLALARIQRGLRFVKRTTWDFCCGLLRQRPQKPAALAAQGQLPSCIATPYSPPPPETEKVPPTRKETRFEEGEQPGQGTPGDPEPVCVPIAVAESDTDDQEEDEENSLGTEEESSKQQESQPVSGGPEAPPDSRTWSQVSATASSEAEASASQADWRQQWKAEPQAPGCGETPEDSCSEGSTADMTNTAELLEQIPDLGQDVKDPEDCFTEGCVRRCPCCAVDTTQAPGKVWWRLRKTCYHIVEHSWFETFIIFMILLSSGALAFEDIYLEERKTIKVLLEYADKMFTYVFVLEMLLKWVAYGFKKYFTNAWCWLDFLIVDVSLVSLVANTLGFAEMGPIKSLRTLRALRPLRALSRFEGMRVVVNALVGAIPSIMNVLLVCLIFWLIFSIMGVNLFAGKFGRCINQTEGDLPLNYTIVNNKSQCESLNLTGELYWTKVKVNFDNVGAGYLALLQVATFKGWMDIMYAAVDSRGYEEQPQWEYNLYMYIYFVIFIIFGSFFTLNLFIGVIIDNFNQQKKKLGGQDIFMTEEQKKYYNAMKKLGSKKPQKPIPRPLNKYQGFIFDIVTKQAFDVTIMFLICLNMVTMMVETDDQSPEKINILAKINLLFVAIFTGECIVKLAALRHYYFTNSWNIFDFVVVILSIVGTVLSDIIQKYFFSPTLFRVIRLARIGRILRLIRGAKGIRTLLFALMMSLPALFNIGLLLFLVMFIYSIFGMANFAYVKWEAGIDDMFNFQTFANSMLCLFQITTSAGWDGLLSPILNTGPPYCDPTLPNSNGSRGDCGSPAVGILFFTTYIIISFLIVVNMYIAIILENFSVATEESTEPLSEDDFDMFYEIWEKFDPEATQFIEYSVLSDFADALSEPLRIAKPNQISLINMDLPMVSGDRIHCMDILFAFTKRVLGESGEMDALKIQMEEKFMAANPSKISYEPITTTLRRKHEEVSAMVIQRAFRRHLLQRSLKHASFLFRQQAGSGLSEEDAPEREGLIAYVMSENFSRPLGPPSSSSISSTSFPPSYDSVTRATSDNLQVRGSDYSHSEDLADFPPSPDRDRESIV
hNav1.7, sequence (Q15858 whole entry, looked up): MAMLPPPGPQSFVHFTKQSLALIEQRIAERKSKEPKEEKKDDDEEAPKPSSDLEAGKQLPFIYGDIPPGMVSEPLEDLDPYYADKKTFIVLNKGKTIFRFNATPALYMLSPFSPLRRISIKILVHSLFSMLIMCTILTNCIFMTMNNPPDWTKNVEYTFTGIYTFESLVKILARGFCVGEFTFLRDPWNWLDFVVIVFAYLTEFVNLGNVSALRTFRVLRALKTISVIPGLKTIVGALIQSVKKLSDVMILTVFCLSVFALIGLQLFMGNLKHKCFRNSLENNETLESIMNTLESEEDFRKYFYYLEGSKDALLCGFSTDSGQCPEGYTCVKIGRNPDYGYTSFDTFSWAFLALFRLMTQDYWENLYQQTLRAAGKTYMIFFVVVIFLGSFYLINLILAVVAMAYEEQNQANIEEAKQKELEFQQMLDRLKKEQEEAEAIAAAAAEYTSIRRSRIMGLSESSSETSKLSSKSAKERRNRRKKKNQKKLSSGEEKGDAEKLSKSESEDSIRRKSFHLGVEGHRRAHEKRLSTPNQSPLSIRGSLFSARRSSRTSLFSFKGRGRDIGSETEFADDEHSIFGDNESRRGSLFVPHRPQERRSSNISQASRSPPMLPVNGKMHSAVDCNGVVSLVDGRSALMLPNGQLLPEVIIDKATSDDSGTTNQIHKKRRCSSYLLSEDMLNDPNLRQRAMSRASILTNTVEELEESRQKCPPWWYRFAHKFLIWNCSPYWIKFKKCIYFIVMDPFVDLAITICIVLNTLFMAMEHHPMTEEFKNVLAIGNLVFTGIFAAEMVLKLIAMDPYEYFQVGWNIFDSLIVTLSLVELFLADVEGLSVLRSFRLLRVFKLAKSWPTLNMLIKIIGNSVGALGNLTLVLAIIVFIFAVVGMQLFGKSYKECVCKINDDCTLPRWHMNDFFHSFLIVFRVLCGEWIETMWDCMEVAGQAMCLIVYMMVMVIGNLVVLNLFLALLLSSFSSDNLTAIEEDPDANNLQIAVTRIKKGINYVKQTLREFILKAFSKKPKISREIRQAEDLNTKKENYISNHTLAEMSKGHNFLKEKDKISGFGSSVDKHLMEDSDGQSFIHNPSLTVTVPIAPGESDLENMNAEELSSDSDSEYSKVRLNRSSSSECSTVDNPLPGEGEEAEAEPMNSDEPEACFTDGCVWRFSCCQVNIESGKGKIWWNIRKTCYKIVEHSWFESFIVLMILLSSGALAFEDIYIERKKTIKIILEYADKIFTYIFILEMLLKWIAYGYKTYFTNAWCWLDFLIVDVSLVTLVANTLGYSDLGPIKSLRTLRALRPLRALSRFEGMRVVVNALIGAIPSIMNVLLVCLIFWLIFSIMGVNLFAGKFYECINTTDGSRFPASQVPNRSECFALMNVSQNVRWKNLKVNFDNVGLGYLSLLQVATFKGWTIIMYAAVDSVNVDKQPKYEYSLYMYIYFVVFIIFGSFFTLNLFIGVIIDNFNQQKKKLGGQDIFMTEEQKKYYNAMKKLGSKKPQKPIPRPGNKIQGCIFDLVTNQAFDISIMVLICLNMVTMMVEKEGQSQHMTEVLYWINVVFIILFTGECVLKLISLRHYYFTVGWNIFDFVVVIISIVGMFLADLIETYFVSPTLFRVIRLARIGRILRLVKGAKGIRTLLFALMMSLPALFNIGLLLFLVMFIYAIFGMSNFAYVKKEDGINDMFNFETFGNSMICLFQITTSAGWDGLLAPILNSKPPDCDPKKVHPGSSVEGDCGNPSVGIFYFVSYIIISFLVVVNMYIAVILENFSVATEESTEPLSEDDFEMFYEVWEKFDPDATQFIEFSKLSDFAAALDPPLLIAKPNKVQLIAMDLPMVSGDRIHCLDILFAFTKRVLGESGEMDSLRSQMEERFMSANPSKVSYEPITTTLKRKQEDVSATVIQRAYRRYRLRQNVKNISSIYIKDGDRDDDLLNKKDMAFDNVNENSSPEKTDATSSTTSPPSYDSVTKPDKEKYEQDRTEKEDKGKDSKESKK

SMILES: CC[C@@H]1NC(=O)CNC(=O)[C@H](CC(C)C)NC(=O)[C@@H](NC(=O)[C@@H](N)CC(=O)O)CSSC[C@@H]2NC(=O)[C@@H]3CSSC[C@@H](C(=O)N[C@@H](CCCCN)C(=O)N[C@@H](Cc4ccc(O)cc4)C(=O)N[C@H](C(=O)N[C@@H](Cc4ccccc4)C(N)=O)C(C)C)NC(=O)[C@H](Cc4c[nH]c5ccccc45)NC(=O)[C@H](CCC(=O)O)NC(=O)[C@H](Cc4c[nH]cn4)NC(=O)[C@H]([C@@H](C)O)NC(=O)[C@H](CCCNC(=N)N)NC(=O)[C@H](CO)NC(=O)[C@H](CSSC[C@H](NC(=O)[C@H](CCCCN)NC(=O)[C@H](CCCNC(=N)N)NC(=O)[C@H](CC(C)C)NC1=O)C(=O)N[C@@H]([C@@H](C)CC)C(=O)N1CCC[C@H]1C(=O)N[C@@H](CC(=O)O)C(=O)N[C@@H](CC(N)=O)C(=O)N[C@@H](CC(=O)O)C(=O)N[C@@H](CCCCN)C(=O)N3)NC(=O)[C@H](C(C)C)NC(=O)[C@H](CC(C)C)NC(=O)[C@H](CC(N)=O)NC(=O)[C@@H]1CCCN1C(=O)[C@H](CCCNC(=N)N)NC2=O [compound 707] (H-DCLG[Abu]LRKCIPDNDKCCRPNLVCSRTHEWCKYVF-NH2; disulfide 2-17, 9-23, 16-30)
- IC50 (hNav1.5; [1]): 6 µM
- IC50 (hNav1.3; [2]): > 5000 nM
- IC50 (hNav1.7; [3]): 1200 nM

SMILES: CC[C@H](C)[C@@H]1NC(=O)[C@@H]2CSSC[C@@H]3NC(=O)[C@H](C(C)C)NC(=O)[C@H](CC(C)C)NC(=O)[C@H](CC(N)=O)NC(=O)[C@@H]4CCCN4C(=O)[C@H](CCCNC(=N)N)NC(=O)[C@H](CSSC[C@H](NC(=O)[C@@H](N)CC(=O)O)C(=O)N[C@@H](CC(C)C)C(=O)NCC(=O)N[C@@H](Cc4ccccc4)C(=O)N[C@@H](CCSC)C(=O)N[C@@H](CCCNC(=N)N)C(=O)N[C@@H](CCCCN)C(=O)N2)NC(=O)[C@H](CSSC[C@@H](C(=O)N[C@@H](CCCCN)C(=O)N[C@@H](Cc2ccc(O)cc2)C(=O)N[C@@H](Cc2ccccn2)C(=O)N[C@@H](Cc2ccccc2)C(N)=O)NC(=O)[C@H](Cc2c[nH]c4ccccc24)NC(=O)[C@H](CCCCN)NC(=O)[C@H](Cc2c[nH]cn2)NC(=O)[C@H]([C@@H](C)O)NC(=O)[C@H](CCCNC(=N)N)NC(=O)[C@H](CO)NC3=O)NC(=O)[C@H](CCCCN)NC(=O)[C@H](CC(=O)O)NC(=O)[C@H](CC(N)=O)NC(=O)[C@H](CC(=O)O)NC(=O)[C@@H]2CCCN2C1=O [compound 402] (H-DCLGFMRKCIPDNDKCCRPNLVCSRTHKWCKY[2Pal]F-NH2; disulfide 2-17, 9-23, 16-30)
- IC50 (hNav1.5; Table 26, IonWorks Quattro, use, […], read-out: IWQ Use Nav1.5): 8.36 µM
- IC50 (hNav1.3; Table 26, use, […]): 160 nM
- IC50 (hNav1.7; Table 26, IonWorks Quattro, use, […], read-out: IWQ Use Nav1.7): 120 nM

SMILES: CC[C@H](C)[C@@H]1NC(=O)[C@@H]2CSSC[C@@H]3NC(=O)[C@H](C(C)C)NC(=O)[C@H](CC(C)C)NC(=O)[C@H](CC(N)=O)NC(=O)[C@@H]4CCCN4C(=O)[C@H](CCCNC(=N)N)NC(=O)[C@H](CSSC[C@H](NC(=O)[C@@H](N)CC(=O)O)C(=O)N[C@@H](CC(C)C)C(=O)NCC(=O)N4CCC[C@H]4C(=O)N[C@@H](CCSC)C(=O)N[C@@H](CCCNC(=N)N)C(=O)N[C@@H](CCCCN)C(=O)N2)NC(=O)[C@H](CSSC[C@@H](C(=O)N[C@@H](CCCCN)C(=O)N[C@@H](Cc2ccc(O)cc2)C(=O)N[C@H](C(=O)N[C@@H](Cc2ccccc2)C(N)=O)C(C)C)NC(=O)[C@H](Cc2c[nH]c4ccccc24)NC(=O)[C@H](CCCCN)NC(=O)[C@H](Cc2c[nH]cn2)NC(=O)[C@H]([C@@H](C)O)NC(=O)[C@H](CCCNC(=N)N)NC(=O)[C@H](CO)NC3=O)NC(=O)[C@H](CCCCN)NC(=O)[C@H](CC(=O)O)NC(=O)[C@H](CC(N)=O)NC(=O)[C@H](CC(=O)O)NC(=O)[C@@H]2CCCN2C1=O [SEQ ID NO: 269] (H-DCLGPMRKCIPDNDKCCRPNLVCSRTHKWCKYVF-NH2; disulfide 2-17, 9-23, 16-30)
- IC50 (hNav1.5; IonWorks Quattro, clamped to −110 mV, depolarized to −10 mV, 5 min after compound, n=2, read-out: IWQ Use Nav1.5): 6.61 µM
- IC50 (hNav1.3; clamped to −110 mV, depolarized to −10 mV, 5 min after compound, n=2): 1730 nM
- IC50 (hNav1.7; IonWorks Quattro, clamped to −110 mV, depolarized to −10 mV, 5 min after compound, n=2, read-out: IWQ Use Nav1.7): 1170 nM

SMILES: CC[C@H](C)[C@@H]1NC(=O)[C@@H]2CSSC[C@@H]3NC(=O)[C@H](C(C)C)NC(=O)[C@H](CC(C)C)NC(=O)[C@H](CC(N)=O)NC(=O)[C@@H]4CCCN4C(=O)[C@H](CCCNC(=N)N)NC(=O)[C@H](CSSC[C@H](NC(=O)[C@@H](N)CC(=O)O)C(=O)N[C@@H](CC(C)C)C(=O)NCC(=O)NCC(=O)N[C@@H](Cc4ccccc4)C(=O)N[C@@H](CCCNC(=N)N)C(=O)N[C@@H](CCCCN)C(=O)N2)NC(=O)[C@H](CSSC[C@@H](C(=O)N[C@@H](CCCCN)C(=O)N[C@@H](Cc2ccc(O)cc2)C(=O)N[C@H](C(=O)N[C@@H](Cc2ccccc2)C(N)=O)C(C)C)NC(=O)[C@H](Cc2c[nH]c4ccccc24)NC(=O)[C@H](CCC(=O)O)NC(=O)[C@H](Cc2c[nH]cn2)NC(=O)[C@H]([C@@H](C)O)NC(=O)[C@H](CCCNC(=N)N)NC(=O)[C@H](CO)NC3=O)NC(=O)[C@H](CCCCN)NC(=O)[C@H](CC(=O)O)NC(=O)[C@H](CC(N)=O)NC(=O)[C@H](CC(=O)O)NC(=O)[C@@H]2CCCN2C1=O [compound 755] (H-DCLGGFRKCIPDNDKCCRPNLVCSRTHEWCKYVF-NH2; disulfide 2-17, 9-23, 16-30)
- IC50 (hNav1.5; IonWorks Quattro, use-dependent block, hNav1.5, read-out: IWQ Use Nav1.5): 15.3 µM
- IC50 (hNav1.3; use-dependent block, hNav1.3): > 5000 nM
- IC50 (hNav1.7; IonWorks Quattro, use-dependent block, hNav1.7, read-out: IWQ Use Nav1.7): > 5000 nM

SMILES: CC[C@H](C)[C@@H]1NC(=O)[C@@H]2CSSC[C@@H]3NC(=O)[C@H](C(C)C)NC(=O)[C@H](CC(C)C)NC(=O)[C@H](CC(N)=O)NC(=O)[C@@H]4CCCN4C(=O)[C@H](CCCNC(=N)N)NC(=O)[C@H](CSSC[C@H](NC(=O)[C@@H](N)CC(=O)O)C(=O)N[C@@H](CC(C)C)C(=O)NCC(=O)N[C@@H](Cc4ccccc4)C(=O)N[C@@H](CCSC)C(=O)N[C@@H](CCCNC(=N)N)C(=O)N[C@@H](CCCCN)C(=O)N2)NC(=O)[C@H](CSSC[C@@H](C(=O)N[C@@H](CCCCN)C(=O)N[C@@H](Cc2ccc(O)cc2)C(=O)N[C@H](C(=O)N[C@@H](Cc2ccccc2)C(N)=O)C(C)C)NC(=O)[C@H](Cc2c[nH]c4ccccc24)NC(=O)[C@H](CCCCN)NC(=O)[C@H](Cc2cnc[nH]2)NC(=O)[C@H](C)NC(=O)[C@H](CCCNC(=N)N)NC(=O)[C@H](CO)NC3=O)NC(=O)[C@H](CCCCN)NC(=O)[C@H](CC(=O)O)NC(=O)[C@H](CC(N)=O)NC(=O)[C@H](CC(=O)O)NC(=O)[C@@H]2CCCN2C1=O [compound 10] (H-DCLGFMRKCIPDNDKCCRPNLVCSRAHKWCKYVF-NH2; disulfide 2-17, 9-23, 16-30)
- IC50 (hNav1.5; IWQ Use Nav1.5 (μM)): 10.5 µM
- IC50 (hNav1.3; Table 22, use, […]): 170 nM
- IC50 (hNav1.7; Table 22, IonWorks Quattro, use, […], read-out: IWQ Use Nav1.7): 250 nM

SMILES: CC[C@H](C)[C@@H]1NC(=O)[C@@H]2CSSC[C@@H]3NC(=O)[C@H](C(C)C)NC(=O)[C@H](CC(C)C)NC(=O)[C@H](CC(N)=O)NC(=O)[C@@H]4CCCN4C(=O)[C@H](CCCNC(=N)N)NC(=O)[C@H](CSSC[C@H](NC(=O)[C@@H](N)CC(=O)O)C(=O)N[C@@H](CC(C)C)C(=O)NCC(=O)N[C@@H](Cc4ccccc4)C(=O)N[C@@H](CCSC)C(=O)N[C@@H](CCCNC(=N)N)C(=O)N[C@@H](CCCCN)C(=O)N2)NC(=O)[C@H](CSSC[C@@H](C(=O)N[C@@H](CCCCN)C(=O)N[C@@H](Cc2ccc(O)cc2)C(=O)N[C@H](C(=O)N[C@@H](CCCNC(=N)N)C(N)=O)C(C)C)NC(=O)[C@H](Cc2c[nH]c4ccccc24)NC(=O)[C@H](CCCCN)NC(=O)[C@H](Cc2cnc[nH]2)NC(=O)[C@H]([C@@H](C)O)NC(=O)[C@H](CCCNC(=N)N)NC(=O)[C@H](CO)NC3=O)NC(=O)[C@H](CCCCN)NC(=O)[C@H](CC(=O)O)NC(=O)[C@H](CC(N)=O)NC(=O)[C@H](CC(=O)O)NC(=O)[C@@H]2CCCN2C1=O [compound 75] (H-DCLGFMRKCIPDNDKCCRPNLVCSRTHKWCKYVR-NH2; disulfide 2-17, 9-23, 16-30)
- IC50 (hNav1.5; IonWorks Quattro, use-dependent, […], read-out: IWQ Use Nav1.5): 8.99 µM
- IC50 (hNav1.3; use-dependent, […]): 4690 nM
- IC50 (hNav1.7): 3580 nM

SMILES: CC[C@H](C)[C@@H]1NC(=O)[C@@H]2CSSC[C@@H]3NC(=O)[C@H](C(C)C)NC(=O)[C@H](CC(C)C)NC(=O)[C@H](CC(N)=O)NC(=O)[C@@H]4CCCN4C(=O)[C@H](CCCNC(=N)N)NC(=O)[C@H](CSSC[C@H](NC(=O)[C@@H](N)CC(=O)O)C(=O)N[C@@H](CC(C)C)C(=O)NCC(=O)N[C@@H](CO)C(=O)N[C@@H](Cc4ccccc4)C(=O)N[C@@H](CCCNC(=N)N)C(=O)N[C@@H](CCCCN)C(=O)N2)NC(=O)[C@H](CSSC[C@@H](C(=O)N[C@@H](CCCCN)C(=O)N[C@@H](Cc2ccc(O)cc2)C(=O)N[C@H](C(=O)N[C@@H](Cc2ccccc2)C(N)=O)C(C)C)NC(=O)[C@H](Cc2c[nH]c4ccccc24)NC(=O)[C@H](CCCCN)NC(=O)[C@H](Cc2c[nH]cn2)NC(=O)[C@H]([C@@H](C)O)NC(=O)[C@H](CCCNC(=N)N)NC(=O)[C@H](CO)NC3=O)NC(=O)[C@H](CCCCN)NC(=O)[C@H](CC(=O)O)NC(=O)[C@H](CC(N)=O)NC(=O)[C@H](CC(=O)O)NC(=O)[C@@H]2CCCN2C1=O [compound 617] (H-DCLGSFRKCIPDNDKCCRPNLVCSRTHKWCKYVF-NH2; disulfide 2-17, 9-23, 16-30)
- IC50 (hNav1.5; [1]): 11.9 µM
- IC50 (hNav1.3; [2]): 1700 nM
- IC50 (hNav1.7; [3]): 760 nM
